How the values were obtained:
IRAP [1] = molecular target: T1, IRAP (Homo sapiens, UniProt Q9UIQ6); test: Primary fluorescence IRAP assay (L-Leucine-7-amido-4-methylcoumarin cleavage); type: biochemical; conditions: for Fluorescence pIC50 / IC50: 37.5 µM L-Leucine-7-amido-4-methylcoumarin, 60 min RT, dose-response 20 µM-27.4 nM; for IC50: read-out: Fluorescence IC50; for LipE: calculated from (pIC50Fluorescence − LogD)
T1 construct: The screen was performed with the soluble truncated IRAP enzyme; made in house
Description: The primary biochemical assay was developed to measure the enzymatic activity of IRAP.
To ensure biochemically sound, optimal, robust, and affordable assay conditions for large-scale screening, several factors need to be considered. […] For both primary fluorescence and orthogonal absorbance assays, non-binding 1536-well assay plates were used, and 0.05% BSA was included in the assay buffer to minimize the issues associated with protein sticking to plastics. The substrate Km values were determined in two separate experiments using two different batches of IRAP protein. For this, the IRAP progress curve was monitored every 5 min for 2 h using an Envision multimode plate reader (PerkinElmer, Waltham, MA, USA).
First, 10 nL of test compounds (4 mM) or 100% DMSO was dispensed into the 1536-well assay plates using an Echo acoustic liquid handler (Beckman Coulter, Brea, CA, USA). Then, 2 μL of protein working solution (5 × 10^−4 mg/mL) was dispensed to the negative control (min effect) and compound wells (final well concentration 2.5 × 10^−4 mg/mL) using a Certus Flex liquid dispenser (Fritz Gyger AG, Thun, Switzerland) and 2 μL assay buffer to the positive control wells (max effect) using a FLEXdrop (PerkinElmer, Waltham, MA, USA).
Figure S9. Reference compounds in Fluorescence IRAP assay with different end volumes in 1536-well format.
mg/ml) and 2 or 4 µL L -Leucine-7-amido-4-methylcoumarin (f.a.c.
Plates were measured on the Envision every 10 minutes for 140 minutes (data
shown up to 2 hours). %Effect was calculated using no protein as MAX effect (assay buffer was added instead of IRAP).

IRAP [2] = molecular target: T1, IRAP; test: Orthogonal absorbance IRAP assay (L-Leucine para-nitroanilide cleavage); type: biochemical; conditions: 1 mM L-Leucine p-Nitroanilide, 120 min RT
Description: The primary biochemical assay was developed to measure the enzymatic activity of IRAP. […] To establish an orthogonal assay, an alternative L-Leucine para-nitroanilide substrate was used, which IRAP turns over to L-Leucine and para-nitroaniline and is measurable by absorbance at 405 nm (Supplementary Figure S2B).
To ensure biochemically sound, optimal, robust, and affordable assay conditions for large-scale screening, several factors need to be considered. These include the final concentration of substrates, based on the determined substrate Km value; the assay kinetics and reaction linearity; achieving a minimal, rate limiting protein concentration; identifying optimal buffer additives and concentrations; the choice of assay plate type; the final assay volume per well; the stability of reagents; the magnitude and variance of the signal; and the potency and rank order of reference compounds. For both primary fluorescence and orthogonal absorbance assays, non-binding 1536-well assay plates were used, and 0.05% BSA was included in the assay buffer to minimize the issues associated with protein sticking to plastics. The substrate Km values were determined in two separate experiments using two different batches of IRAP protein. For this, the IRAP progress curve was monitored every 5 min for 2 h using an Envision multimode plate reader (PerkinElmer, Waltham, MA, USA). […] To evaluate if using substrate concentrations close to the determined Km values results in sufficient dynamic range within the linear range of the enzymatic reaction, Z′ and S/B were calculated for multiple time points up to 2.5 h in the presence and absence of reference compounds in both assays. The primary fluorescence assay reached an optimal Z′-value after 1 h when using 37.5 μM substrate (Supplementary Figure S5). For the absorbance, 2 h was required for the enzyme reaction time; however, using ~0.4 mM substrate was associated with increased assay variation and a poor Z′ (Supplementary Figure S6).
The orthogonal assay was performed in a black non-binding 1536-well plate (Corning 3728) and sealed with universal lids (Corning 3098). First, 20 nL of test compounds (4 mM) or 100% DMSO was dispensed into the 1536-well assay plates using an Echo acoustic liquid handler (Beckman Coulter). Then, 4 μL of protein working solution (5 × 10^−4 mg/mL) was dispensed to the negative control (min effect) and compound wells (final well concentration 2.5 × 10^−4 mg/mL) using the Certus Flex liquid dispenser (Fritz Gyger AG) and 4 μL assay buffer to the positive control wells (max effect) using the FLEXdrop (PerkinElmer). Next, 4 μL of 2 mM substrate working solution was dispensed into all wells using the FLEXdrop (final well concentration 1 mM). The assay plates were then centrifuged at 187.5× g for 30 s, incubated in the dark at RT for 120 min, and finally read on an Envision plate reader (PerkinElmer) (absorbance at 405 nm, 10 flashes per second). During the dose–response curve analysis in the orthogonal assay, 80 nL of compound (range 2.00 × 10^−3 M–2.74 × 10^−6 M) or 100% DMSO was dispensed into the assay plates using an Echo acoustic liquid handler (Beckman Coulter) with final well concentration range of 20 μM–27.4 nM compound and 1% DMSO.

IRAP [3] = molecular target: T1, IRAP; test: Deselection fluorescence IRAP assay with 10 µM zinc; type: biochemical; conditions: 10 µM ZnSO4 in assay buffer
Procedure: To prepare the assay buffer (50 mM Tris-HCl pH 7.4, 150 mM NaCl, 0.1 mM PMSF, 0.05% BSA) of the primary and orthogonal assays, 1 M Tris-HCl was prepared by dissolving 60.57 g Trizma-base (Mw 121.14 g/mol) (Sigma 93362-250G) in 500 mL MQ water, and the pH was adjusted to 7.4 using 4 M HCl. The solution was filtered with a 0.45 μm filter and stored at room temperature (RT). Then, 2 M NaCl stock was prepared by dissolving 29.22 g NaCl (Mw 58.44 g/mol) (Sigma S7653-250G) in 250 mL MQ water. The solution was filtered with a 0.45 μm filter and stored at RT. Next, 100 mM Phenylmethanesulfonylfluoride (PMSF) stock was prepared by dissolving 1 g PMSF (Mw 174.19 g/mol) (Sigma 78830-1G) in 57.4 mL isopropanol (Sigma I9516-500ML) and stored at 4 °C. A 10% Bovine Serum Albumin (BSA) stock solution was prepared by dissolving 2 g BSA (Mw 66.5 kDa) (Sigma A7030-50G), which was dissolved in 20 mL MQ water. The solution was filtered with a 0.45 μm filter, aliquoted, and stored at −20 °C. For the deselection assay buffer (50 mM Tris-HCl pH 7.4, 150 mM NaCl, 0.1 mM PMSF, 0.05% BSA, 10 μM ZnSO4), 1 mM ZnSO4 solution was prepared by dissolving 28.8 mg ZnSO4 (Mw 287.56 g/mol) (Sigma Z0251-100G) in 100 mL MQ water. The solution was filtered with a 0.45 μm filter and stored at RT. For the TSA assay buffer (50 mM Tris HCL, 150 mM NaCl, pH 7.4), stocks of 1 M Tris HCL and 2 M NaCl were prepared as described above.

IRAP [4] = molecular target: T1, IRAP; test: Thermal shift (TSA) IRAP assay; type: binding; conditions: screening hits at 30 µM, 1% DMSO
Description: The Thermal shift assay (TSA) is a biophysical technique measuring protein thermal stability. The assay relies on a fluorescent dye that is quenched in an aqueous environment but fluoresces when de-solvated in non-polar environments, such as the hydrophobic pockets of proteins. The target protein is mixed with the dye and heated gradually until it becomes completely denatured; as it unfolds or melts, the dye binds to newly exposed hydrophobic regions of the protein, resulting in a significant increase in fluorescence emission detected by a PCR system. The melting temperature (Tm) is calculated from the protein melt curve, and changes in Tm (known as ΔTm) are correlated with changes in protein stability and ligand binding. […] For the TSA assay, vehicle (DMSO) or compound was dispensed into MicroAmp Endura optical qPCR plates at the desired volume using an Echo acoustic liquid handler. […] The plates were then centrifuged for 10 s at 1000 rpm and sealed with Clear PCR-compatible plate seals.

[5] = parameters: method as in ELF screening history; conditions: ref ELF screening history, cited from earlier work; for Enzyme Active: number of ELF enzyme screens in which the compound was active; for Targets active: number of ELF screens in which the compound was active; for Enzyme Active %: share of ELF enzyme targets screened; for Targets Active %: share of all ELF targets screened

T1 sequence (Q9UIQ6 155-1025 limits assumed): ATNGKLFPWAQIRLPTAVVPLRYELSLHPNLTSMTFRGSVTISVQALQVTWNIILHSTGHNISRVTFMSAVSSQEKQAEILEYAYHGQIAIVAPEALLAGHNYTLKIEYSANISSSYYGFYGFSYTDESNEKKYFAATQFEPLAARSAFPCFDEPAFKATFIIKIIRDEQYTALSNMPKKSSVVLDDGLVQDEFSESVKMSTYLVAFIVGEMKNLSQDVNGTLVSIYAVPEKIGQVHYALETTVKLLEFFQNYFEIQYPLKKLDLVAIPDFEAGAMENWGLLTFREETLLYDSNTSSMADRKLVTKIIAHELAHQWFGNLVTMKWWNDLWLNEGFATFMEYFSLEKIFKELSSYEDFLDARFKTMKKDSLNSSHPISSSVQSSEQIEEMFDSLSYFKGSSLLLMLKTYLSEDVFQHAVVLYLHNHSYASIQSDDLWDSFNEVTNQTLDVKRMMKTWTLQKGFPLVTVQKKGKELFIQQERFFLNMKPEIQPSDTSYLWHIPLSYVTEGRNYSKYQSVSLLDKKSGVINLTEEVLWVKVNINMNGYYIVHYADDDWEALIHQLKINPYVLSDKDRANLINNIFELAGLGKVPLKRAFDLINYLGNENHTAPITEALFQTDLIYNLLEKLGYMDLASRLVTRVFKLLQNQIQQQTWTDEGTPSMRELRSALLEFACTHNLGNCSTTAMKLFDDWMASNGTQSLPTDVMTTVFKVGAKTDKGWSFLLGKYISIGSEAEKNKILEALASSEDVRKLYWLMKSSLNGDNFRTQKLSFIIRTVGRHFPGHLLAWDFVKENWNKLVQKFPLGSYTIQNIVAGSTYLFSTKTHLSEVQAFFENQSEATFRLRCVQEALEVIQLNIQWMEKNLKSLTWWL

Row | SMILES | Fluorescence pIC50 (IRAP [1]) | IC50 (IRAP [1]) [µM] | LipE (IRAP [1]) | Absorbance pIC50 (IRAP [2]) | Fluorescence + Zn pIC50 (IRAP [3]) | ΔTm at 30 µM (IRAP [4]) [°C] | Enzyme Active [5] | Targets active [5] | Enzyme Active % [5] [%] | Targets Active % [5] [%] | IC50 (IRAP [2]; read-out: Absorbance pIC50 (converted)) [µM] | IC50 (IRAP [3]; read-out: Fluorescence + Zn pIC50 (converted)) [µM] | TSA (∆°C), thermal shift of IRAP (IRAP [4]) [°C]
1 | Fc1ccc(F)c(Cn2ccc3ncccc32)c1Cl [QHL31] | 5.46 | 3.47 | 1.05 | <4.70 | 5.38 | 0 | 5 | 8 | 5.3 | 5.3 |  |  | 
2 | CCCNc1nc(N(C)C)nc2cc(OC)c(OC)cc12 [QHL32] |  | 3.47 | 3.10 |  |  | 0.15 | 1 | 2 | 2.4 | 2.6 | > 20 | 6.17 | 
3 | COc1cc2c(cc1-c1cnco1)C(=O)N(C)C(C)(C=Cc1ccncc1)N2 (centres unmarked) [QHL33] | 5.43 | 3.72 | 3.82 | 5.510 | 5.42 |  | 4 | 5 | 4.3 | 3.4 |  |  | 0.74
4 | Nc1nc2cc(C(=O)O)ccc2n1Cc1cc(F)cc(F)c1 [QHL34] | 5.41 | 3.89 | 3.88 | < 4.70 | 5.39 |  | 1 | 2 | 1.3 | 1.4 |  |  | 0.3
5 | COc1cc(CN2C(Cc3ccc(S(C)(=O)=O)cc3)CCC2c2cccnc2)cc(OC)c1 (centres unmarked) [QHL35] | 5.40 | 3.98 | 1.15 | 4.85 | 5.34 |  | 6 | 8 | 6.8 | 5.5 |  |  | 0
6 | O=C(N1CCCC1)C1(CNS(=O)(=O)c2cccc3ccccc23)CC12CCCCC2 (centres unmarked) [QHL37] | 5.36 | 4.37 | 1.74 | < 4.70 | 5.36 |  | 5 | 7 | 12.2 | 9.3 |  |  | 0.15
